Test results published in US7968572B2, “Nitrogen-containing heterocyclic compound and pharmaceutical application thereof” (Ono Pharmaceuticals Co., Ltd., priority 2005, dated 2011).

Tests used:
[1] = Evaluation of artificial lipid membrane binding using a Biacore S51 system; settings: for Binding Level (RU): compound 50 μM, DOPA liposomes on Sensor Chip L1, 37° C., PBS/5% DMSO (pH 7.4 or pH 6.0); for Judgment: phospholipidosis inducing activity judged from artificial lipid membrane binding
Experimental: Evaluation of Artificial Lipid Membrane Binding using a Biacore S51 (Registered Trademark) System
Using an aspirator, 10 mM of 1,2-dioleoyl-sn-glycero-3-phosphate monosodium salt (hereinafter abbreviated to DOPA) chloroform solution was evaporated to be dryness, and 0.6 mL of PBS/5% dimethyl sulfoxide (hereinafter abbreviated to DMSO) was added thereto. After carrying out thorough suspension by vortex, freezing and thawing were repeated for 5 times. Liposomes were prepared using a liposome preparation device (manufactured by Avestin Inc.) and two syringes and diluted to be 0.5 mM with PBS/5% DMSO just before the immobilization.
Each compound having a final concentration in PBS/5% DMSO of 50 μM was prepared by adding 38 μL of 1× PBS to 2 μL of 10 mM DMSO solution and further adding 360 μL of 1× PBS/5% DMSO and measured.
All of the following analyses were carried out using the Biacore S51 (registered trademark) system, and the measuring conditions were set up by Biacore S51 Control Software.
The measuring temperature was set to be 37° C., and PBS/5% DMSO (pH 7.4 or pH 6.0) was used as the buffer. Series S Sensor Chip L1 was used as the sensor chip. DOPA was immobilized on one of the measuring spots on the sensor surface, and the central spot was used as the reference.
Immobilization of the liposomes was carried out for about 3 minutes at a flow rate of 10 μL/minute, and then each compound was added thereto at a flow rate of 30 μL/minute to measure the interaction. The measuring conditions are as shown in the following.
Assay buffer: PBS/5% DMSO (pH 7.4 or pH 6.0)
Measuring temperature: 37° C.
Sensor chip: Series S Sensor Chip L1
Flow rate: 10 μL/minute at the time of liposome immobilization, 30 μL/minute at the time of interaction measurement
Regeneration: 20 mM CHAPS (3-[(3-cholamidopropyl)dimethylammonio]-1-propanesulfonate), an isopropanol/50 mM aqueous solution of sodium hydroxide=40/60 (volume ratio) mixed solution (60 seconds)
The data treatment was carried out in accordance with the method of Abdiche et al. (Analytical Biochemistry, 328, 233-243 (2004)) using Biacore S51 Evaluation Software.
After correcting infinitesimal error of the concentration of DMSO contained in the sample solution, the value of binding response (RU) obtained by subtracting the value of reference was divided by the sample molecular weight. Additionally, since the thus obtained value is proportional to the capturing amount of liposome, it was divided by the capturing amount at the time of the cycling and multiplied by 10^6 to be used as the correction value (correction value=1000000×RU (compound to be tested)/molecular weight (compound to be tested) RU (liposome)).
By adding propranolol, amiodarone, desipramine, imipramine and procaine as controls, it was confirmed that variation of the binding response is within about 10 to 15%.
Compounds having a binding response value after correction of 100 or more were judged positive.

[2] = test system: TNF-α production induced by lipopolysaccharide (LPS) in rats; assay: Rat cytokine-production model; assay type: in vivo; settings: male SD rat, oral 0.3 mg/kg, LPS 10 μg/kg intravenously after 8 hours, plasma TNF-α ninety minutes after LPS; read-out: Inhibition rate (%) (Dose of compound: 0.3 mg/kg)
Experimental: Rat Cytokine-Production Model
The in vivo effect of the compound of the present invention was studied on TNF-α production induced by lipopolysaccharide (LPS) in rats.
A vehicle containing the compound of the present invention was orally administered to male SD rat (Charles River Japan, Inc.), and after 8 hours, lipopolysaccharide (LPS, 055:B5, Difco) was intravenously administered at the dose of 10 μg/kg (5 animals/group). Only a vehicle was orally administered to a control group (5 animals). Ninety minutes after the LPS treatment, heparinized blood collection was performed via the abdominal vena cava under anesthesia with ether, and blood plasma was obtained by centrifugation (12,000 rpm, 3 minutes, 4° C.). The obtained blood plasma sample was stored at −80° C. until it was used. TNF-α in the blood plasma was measured using an ELISA kit from R&D System (#RTA00).
The inhibitory activity of the compound of the present invention against TNF-α production was calculated as an inhibition rate (%) according to the following equation: Inhibition rate (%)={(AC−AX)/AC}×100
wherein AC is a measured value in case where no test compound was administered under LPS induction, and
AX is a measured value in case where a test compound was administered under LPS induction.

With `C[C@](O)(CO)c1nc(-c2ccc(=O)n(-c3c(F)cccc3F)c2)c(-c2ccc(F)cc2F)o1` [Example 167 (2), 1-(2,6-difluorophenyl)-5-{5-(2,4-difluorophenyl)-2-[(1S)-1,2-dihydroxy-1-methylethyl]-1,3-oxazol-4-yl}-2(1H)-pyridinone] the “Binding Level (RU)” value [1] was 22.2 RU, the Judgment [1] was “Negative” and the inhibition at 0.3 mg/kg [2] was 64%.
In the case of `CC(C)(O)Cc1nc(-c2ccc(F)cc2F)c(-c2ccc(=O)n(-c3c(F)cccc3F)c2)o1` [Example 220, 1-(2,6-difluorophenyl)-5-[4-(2,4-difluorophenyl)-2-(2-hydroxy-2-methylpropyl)-1,3-oxazol-5-yl]-2(1H)-pyridinone], the “Binding Level (RU)” value [1] is reported as 15.5 RU, the Judgment [1] is reported as “Negative” and the inhibition at 0.3 mg/kg [2] is reported as 88%.
In the case of `C[C@@](O)(CO)c1nc(-c2ccc(F)cc2F)c(-c2ccc(=O)n(-c3c(F)cccc3F)c2)o1` [Example 211, 1-(2,6-difluorophenyl)-5-{4-(2,4-difluorophenyl)-2-[(1R)-1,2-dihydroxy-1-methylethyl]-1,3-oxazol-5-yl}-2(1H)-pyridinone], the “Binding Level (RU)” value [1] is reported as 11.1 RU, the Judgment [1] is reported as “Negative” and the inhibition at 0.3 mg/kg [2] is reported as 85%.
In the case of `CC(C)(O)[C@H](O)c1nc(-c2ccc(F)cc2F)c(-c2ccc(=O)n(-c3c(F)cccc3F)c2)o1` [Example 206, 1-(2,6-difluorophenyl)-5-{4-(2,4-difluorophenyl)-2-[(1S)-1,2-dihydroxy-2-methylpropyl]-1,3-oxazol-5-yl}-2(1H)-pyridinone], the “Binding Level (RU)” value [1] is reported as 14.7 RU, the Judgment [1] is reported as “Negative” and the inhibition at 0.3 mg/kg [2] is reported as 79%.
With `CC(C)(O)[C@@H](O)c1nc(-c2ccc(=O)n(-c3c(F)cccc3F)c2)c(-c2ccc(F)cc2F)o1` [Example 227 (1), 1-(2,6-difluorophenyl)-5-{5-(2,4-difluorophenyl)-2-[(1R)-1,2-dihydroxy-2-methylpropyl]-1,3-oxazol-4-yl}-2(1H)-pyridinone] the “Binding Level (RU)” value [1] was 21.0 RU, the Judgment [1] was “Negative” and the inhibition at 0.3 mg/kg [2] was 88%.
With `C[C@@](O)(CO)c1nc(-c2ccc(=O)n(-c3c(F)cccc3F)c2)c(-c2ccc(F)cc2F)o1` [Example 167 (1), 1-(2,6-difluorophenyl)-5-{5-(2,4-difluorophenyl)-2-[(1R)-1,2-dihydroxy-1-methylethyl]-1,3-oxazol-4-yl}-2(1H)-pyridinone] the “Binding Level (RU)” value [1] was 19.6 RU, the Judgment [1] was “Negative” and the inhibition at 0.3 mg/kg [2] was 73%.
For `CC(C)(O)c1nc(-c2ccc(=O)n(-c3c(F)cccc3F)c2)c(-c2ccc(F)cc2F)o1` [Example 7 (21), 1-(2,6-difluorophenyl)-5-[5-(2,4-difluorophenyl)-2-(1-hydroxy-1-methylethyl)-1,3-oxazol-4-yl]-2(1H)-pyridinone], the “Binding Level (RU)” value [1] was 18.3 RU, the Judgment [1] was “Negative” and the inhibition at 0.3 mg/kg [2] was 85%.
In the case of `CC(C)(O)[C@@H](O)c1nc(-c2ccc(F)cc2F)c(-c2ccc(=O)n(-c3c(F)cccc3F)c2)o1` [Example 207, 1-(2,6-difluorophenyl)-5-{4-(2,4-difluorophenyl)-2-[(1R)-1,2-dihydroxy-2-methylpropyl]-1,3-oxazol-5-yl}-2(1H)-pyridinone], the “Binding Level (RU)” value [1] is reported as 12.8 RU, the Judgment [1] is reported as “Negative” and the inhibition at 0.3 mg/kg [2] is reported as 94%.
With `O=c1ccc(-c2nc(C(O)(CO)CO)oc2-c2ccc(F)cc2F)cn1-c1c(F)cccc1F` [Example 7 (39), 1-(2,6-difluorophenyl)-5-{5-(2,4-difluorophenyl)-2-[1,2-dihydroxy-1-(hydroxymethyl)ethyl]-1,3-oxazol-4-yl}-2(1H)-pyridinone] the “Binding Level (RU)” value [1] was 11.1 RU, the Judgment [1] was “Negative” and the inhibition at 0.3 mg/kg [2] was 64%.
With `O=c1ccc(-c2oc(C(O)(CO)CO)nc2-c2ccc(F)cc2F)cn1-c1c(F)cccc1F` [Example 223, 1-(2,6-difluorophenyl)-5-{4-(2,4-difluorophenyl)-2-[1,2-dihydroxy-1-(hydroxymethyl)ethyl]-1,3-oxazol-5-yl}-2(1H)-pyridinone] the “Binding Level (RU)” value [1] was 8.7 RU, the Judgment [1] was “Negative” and the inhibition at 0.3 mg/kg [2] was 72%.
For `CC(C)(O)[C@H](O)c1nc(-c2ccc(=O)n(-c3c(F)cccc3F)c2)c(-c2ccc(F)cc2F)o1` [Example 227, 1-(2,6-difluorophenyl)-5-{5-(2,4-difluorophenyl)-2-[(1S)-1,2-dihydroxy-2-methylpropyl]-1,3-oxazol-4-yl}-2(1H)-pyridinone], the “Binding Level (RU)” value [1] was 22.5 RU, the Judgment [1] was “Negative” and the inhibition at 0.3 mg/kg [2] was 65%.
